Reference: patent US20090012152A1, “Use of Tetramic Acid Derivatives for Controlling Insects from the Genus of the Plane Lice (Sternorrhyncha)” (Bayer CropScience Aktiengesellschaft, priority 2005, published 2009)

Tested on: Aonidiella aurantii
Assay: Example 16: grapefruit tree treated against Aonidiella aurantii
Type: in vivo
Details: on fruits, per metre crown height: Dursban 6.01 pounds/acre, I-4 72 g/ha
Experimental: In four replications, an about 10-year-old grapefruit tree of the cultivar “Rio Red” is treated against Aonidiella aurantii. The application is carried out using a motor-operated barrow-mounted sprayer. Here, the active compound Example (I-4) (240 SC) and the commercial standard Dursban (480 EC) are tested at the stated application rates. The amount of spray liquor is 5.8 gallons per tree.
Evaluation is carried out 28, 59 and 90 days after the treatment by rating the kill of the animals on the fruits.

In the case of `CCOC(=O)OC1=C(c2cc(C)ccc2C)C(=O)NC12CCC(OC)CC2` (stereo not drawn) [Example (I-4)], the “Kill (%) 28 d” value (28 d after treatment) was 92.7%, the “Kill (%) 59 d” value (59 d after treatment) was 100% and the “Kill (%) 90 d” value (90 d after treatment) was 100%.
